Test results from patent publication US10350199B2, “3-(1h-pyrrolo[2,3-b]pyridin-2-yl)-1h-indazoles and therapeutic uses thereof” (Samumed, LLC, priority 2015, dated 2019).

How the values were obtained:
Assay type in all cases: cell-based
[1] = tested on: Wnt activity (Sp5-Luc reporter, SW480 colon carcinoma cells); experiment: Wnt activity screening assay, Sp5-Luc reporter gene in SW480 cells; settings: Homo sapiens; for EC50: Sp5-Luc reporter, SW480 cells, overnight incubation; for inhibition at 10 µM: SW480, read-out: percent inhibition at 10 μM
Procedure, shortened: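 Read-out is BrightGlo luminescence, normalized to DMSO-treated cells and fitted by four-parameter variable-slope regression for EC50. Reporter cells: SW480 colon carcinoma carrying a stable lentiviral Sp5-Luc construct with eight TCF/LEF sites, seeded 4,000/well in 1% FBS, incubated overnight at 37° C.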

[2] = tested on: SW480 colon cancer cells; experiment: Cell viability assay (CellTiter-Blue), SW480 cells, four days; settings: Homo sapiens; for EC50: 96 h, SW480 cell viability, four days, CellTiter-Blue; for inhibition at 10 µM: SW480, read-out: percent inhibition at 10 μM
Procedure, shortened: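 Fluorescence from resazurin reduced to resorufin by metabolically active cells was the read-out, taken after ~3 h with CellTiter-Blue.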

[3] = tested on: primary human fibroblasts derived from IPF patients (LL29 cells) treated with TGF-β1; experiment: Inhibition of the fibrotic process: αSMA staining in TGF-β1 treated LL29 fibroblasts; settings: Fibroblast; for EC50: 96 h, LL29 cells, TGF-β1 20 ng/mL, 4 days, % αSMA positive cells; for inhibition at 10 µM: read-out: percent inhibition at 10 μM
Procedure, shortened: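 Read-out after 4-day incubation: αSMA staining with 1 μM SYTOX green nuclear counterstain (30 min, room temperature). Cells were LL29 primary fibroblasts from IPF patients, in 1% FBS F12, exposed to TGF-β1 with test compound, referenced to TGF-β1/DMSO control wells.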

[4] = tested on: primary human mesenchymal stem cells (hMSCs); experiment: Induction of chondrogenesis in human mesenchymal stem cells (nodule area, Rhodamine B/Nile Red); settings: hMSC chondrogenesis; for EC50: concentration required to induce 50% levels of chondrogenesis of TGF-β3 positive control, read-out: Conc (nM) of 50% TGF-β3 activity; for Emax: relative to TGF-β3 (10 ng/mL) positive control, read-out: Max. Activity as % TGF-β3 activity
Source text: Representative compounds were screened using primary human mesenchymal stem cells (hMSCs) to determine their ability to induce chondrogenesis (process by which cartilage is developed).
Primary human mesenchymal stem cells (hMSCs) were purchased from Lonza (Walkersville, Md.) and expanded in Mesenchymal Stem Cell Growth Media (Lonza). Cells between passage 3 and 6 were used for the experiments.
Area of nodules in each well was normalized to the average of 3 DMSO treated wells on the same plate using Excel (Microsoft Inc.). The normalized averages (fold change over DMSO) of 2 or 3 replicate wells for each compound concentration were calculated. Due to solubility limitations of some of the compounds, curve fitting was incomplete leading to inaccurate EC50 determinations.
Using TGF-β3 as a positive control, the concentration of representative compounds required to induce 50% levels of chondrogenesis is reported. In addition, the maximum activity of each compound and the respective dose that each compound reached maximum chondrogenesis activity is reported.

[5] = tested on: IL-6 (THP-1 human monocyte cell line); experiment: IL-6 inhibition in LPS-stimulated THP-1 cells (HTRF); settings: for EC50: IL-6 inhibition, LPS-stimulated THP-1 cells, HTRF; for inhibition at 10 µM: THP-1, read-out: percentage in parentheses beside EC50 >10 (IL-6 inhibition)
Procedure, shortened: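 After 24 h in 1% FBS medium, cells had compound 2 h before 500 ng/mL LPS, then 22 h more at 37 °C. DMSO-normalized HTRF signal (665/620 nm ratio, anti-IL-6 antibody pair) was fitted with a variable-slope four-parameter model to give EC50.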

| Structure (SMILES) | EC50 [1] | EC50 [2] | EC50 [4] | EC50 [5] | inhibition at 10 µM [2] | EC50 [3] | inhibition at 10 µM [3] | Emax [4] | inhibition at 10 µM [1] | inhibition at 10 µM [5] |
| --- | --- | --- | --- | --- | --- | --- | --- | --- | --- | --- |
| CN1CCN(c2ccnc3[nH]c(-c4n[nH]c5ccc(-c6cncc(CNCc7ccccc7)c6)cc45)cc23)CC1 [Compound 248, N-Benzyl-1-(5-(3-(4-(4-methylpiperazin-1-yl)-1H-pyrrolo[2,3-b]pyridin-2-yl)-1H-indazol-5-yl)pyridin-3-yl)methanamine] | 3370 nM | 2170 nM | – | 7730 nM | – | 2260 nM | – | 17% | – | – |
| Nc1cncc(-c2ccc3[nH]nc(-c4cc5cccnc5[nH]4)c3c2)c1 [Compound 255, 5-(3-(1H-Pyrrolo[2,3-b]pyridin-2-yl)-1H-indazol-5-yl)pyridin-3-amine] | 102 nM | 632 nM | – | 15 nM | – | 138 nM | – | 36% | – | – |
| c1cnc2[nH]c(-c3n[nH]c4ccc(-c5cncc(OCCN6CCCC6)c5)cc34)cc2c1 [Compound 658, 5-(5-(2-(Pyrrolidin-1-yl)ethoxy)pyridin-3-yl)-3-(1H-pyrrolo[2,3-b]pyridin-2-yl)-1H-indazole] | 3300 nM | 3940 nM | – | 205 nM | – | 1200 nM | – | 43% | – | – |
| CN(C)Cc1cncc(-c2ccc3[nH]nc(-c4cc5c(-c6cccc(F)c6)ccnc5[nH]4)c3c2)c1 [Compound 13, 1-(5-(3-(4-(3-Fluorophenyl)-1H-pyrrolo[2,3-b]pyridin-2-yl)-1H-indazol-5-yl)pyridin-3-yl)-N,N-dimethylmethanamine] | 1180 nM | 2920 nM | – | > 10000 nM | – | 1190 nM | – | 48% | – | 55.3% |
| c1cc(-c2ccnc3[nH]c(-c4n[nH]c5ccc(-c6cncnc6)cc45)cc23)ccn1 [Compound 139, 3-(4-(Pyridin-4-yl)-1H-pyrrolo[2,3-b]pyridin-2-yl)-5-(pyrimidin-5-yl)-1H-indazole] | > 10000 nM | > 10000 nM | – | > 10000 nM | 5.3% | > 10000 nM | 14.5% | 17% | 7.5% | 43.1% |
| Fc1cccc(-c2ccnc3[nH]c(-c4n[nH]c5ccc(C6CCNCC6)cc45)cc23)c1 [Compound 505, 3-(4-(3-Fluorophenyl)-1H-pyrrolo[2,3-b]pyridin-2-yl)-5-(piperidin-4-yl)-1H-indazole] | 563 nM | 465 nM | 900 nM | 166 nM | – | 335 nM | – | 103% | – | – |
| CN1CCN(c2ccnc3[nH]c(-c4n[nH]c5ccc(-c6cncc(NC(=O)CC7CCNCC7)c6)cc45)cc23)CC1 [Compound 641, N-(5-(3-(4-(4-Methylpiperazin-1-yl)-1H-pyrrolo[2,3-b]pyridin-2-yl)-1H-indazol-5-yl)pyridin-3-yl)-2-(piperidin-4-yl)acetamide] | > 10000 nM | > 10000 nM | – | > 10000 nM | 16.2% | > 10000 nM | 23.5% | 17% | 10.8% | 26% |
| c1cnc2[nH]c(-c3n[nH]c4ccc(-c5cncc(CN6CCCCC6)c5)cc34)cc2c1 [Compound 267, 5-(5-(Piperidin-1-ylmethyl)pyridin-3-yl)-3-(1H-pyrrolo[2,3-b]pyridin-2-yl)-1H-indazole] | 1670 nM | 675 nM | 10 nM | 177 nM | – | 458 nM | – | 51% | – | – |
| Cc1ccncc1-c1ccc2[nH]nc(-c3cc4c(-c5ccoc5)ccnc4[nH]3)c2c1 [Compound 313, 3-(4-(Furan-3-yl)-1H-pyrrolo[2,3-b]pyridin-2-yl)-5-(4-methylpyridin-3-yl)-1H-indazole] | 4280 nM | > 10000 nM | 100 nM | 1010 nM | 0% | > 10000 nM | 36.3% | 67% | – | – |
| Nc1cncc(-c2ccc3[nH]nc(-c4cc5c(N6CCCCC6)ccnc5[nH]4)c3c2)c1 [Compound 171, 5-(3-(4-(Piperidin-1-yl)-1H-pyrrolo[2,3-b]pyridin-2-yl)-1H-indazol-5-yl) pyridin-3-amine] | 604 nM | 1230 nM | 30 nM | 622 nM | – | 1720 nM | – | 130% | – | – |

Now from value to compound, other results behind:

| EC50 [1] | EC50 [2] | EC50 [4] | EC50 [5] | Structure (SMILES) | inhibition at 10 µM [2] | EC50 [3] | inhibition at 10 µM [3] | Emax [4] | inhibition at 10 µM [1] | inhibition at 10 µM [5] |
| --- | --- | --- | --- | --- | --- | --- | --- | --- | --- | --- |
| 184 nM | > 10000 nM | 900 nM | 550 nM | CC(C)CC(=O)Nc1cncc(-c2ccc3[nH]nc(-c4cc5c(-c6cccnc6)ccnc5[nH]4)c3c2)c1 [Compound 86, 3-Methyl-N-(5-(3-(4-(pyridin-3-yl)-1H-pyrrolo[2,3-b]pyridin-2-yl)-1H-indazol-5-yl)pyridin-3-yl)butanamide] | 44.6% | > 10000 nM | 25.9% | 104% | – | – |
| 890 nM | 9200 nM | – | 694 nM | CC(C)(C)CC(=O)Nc1cncc(-c2ccc3[nH]nc(-c4cc5c(-c6ccoc6)ccnc5[nH]4)c3c2)c1 [Compound 324, N-(5-(3-(4-(Furan-3-yl)-1H-pyrrolo[2,3-b]pyridin-2-yl)-1H-indazol-5-yl)pyridin-3-yl)-3,3-dimethylbutanamide] | – | > 10000 nM | 0% | 21% | – | – |
| > 10000 nM | > 10000 nM | – | > 10000 nM | O=C(Nc1cncc(-c2ccc3[nH]nc(-c4cc5c(-c6ccncc6)ccnc5[nH]4)c3c2)c1)c1ccccc1 [Compound 123, N-(5-(3-(4-(Pyridin-4-yl)-1H-pyrrolo[2,3-b]pyridin-2-yl)-1H-indazol-5-yl)pyridin-3-yl)benzamide] | 7.2% | > 10000 nM | 49.2% | 19% | 17.3% | 20.6% |
| 22 nM | 89 nM | – | 83 nM | Nc1cncc(-c2ccc3[nH]nc(-c4cc5c(-c6ccccn6)ccnc5[nH]4)c3c2)c1 [Compound 143, 5-(3-(4-(Pyridin-2-yl)-1H-pyrrolo[2,3-b]pyridin-2-yl)-1H-indazol-5-yl) pyridin-3-amine] | – | 45 nM | – | 46% | – | – |
